Test results: patent US12606538B2, “Benzo[b]selenophene sting regulator, preparation method and use thereof” (CHINA PHARMACEUTICAL UNIVERSITY, priority 2021, dated 2026)

tested on: THP1-dual cells; test: Luciferase assay based on THP1-dual cells; type: cell-based; conditions: final concentration of compound 10 μL (so in the source), 24 h at 37° C.
Description: (§1) THP1-dual™ (Invivogen: thpd-nfis) cells or RAW-Lucia™ (Invivogen: rawl-isg) cells were diluted using a culture medium, and 180 μL of cell suspension was sucked and inoculated in a 96-well plate, such that each well contain 1×10^5 cells. 20 μL of a compound to be tested was added into the 96-well plate (the final concentration of said compound was […], and the final volume of each well was […]) and cultured at 37° C. for 24 h. 10 μL of supernatant was sucked into a new 96-well white plate, and 50 μL of a QUANT-Luc reagent was added. After full and even mixing, a microplate reader was used immediately for determination. There were three repeated wells set in the assay. The test result was represented as agitation fold and calculated by (test well−blank well)/(negative well−blank well). The test result was in the following tablet, with 2′,3′-cGAMP as a positive control, where *** represented an agitation fold of 20 or more, ** represented an agitation fold of 10 to 20, and * represented an agitation fold of 1 to 10.

For `COc1cc2cc(C(=O)CCCC(=O)O)[se]c2cc1OC` [I-21, 5-(5,6-dimethoxybenzo[b]selenophene-2-yl)-5-oxo-pentanoic acid], which “Agitation activity in luciferase assay, THP1-dual (agitation fold)” value is on record?
Its value is “* (* represented an agitation fold of 1 to 10)”.

How did the “Agitation activity in luciferase assay, THP1-dual (agitation fold)” value turn out when `COc1cc2cc(C(=O)C3CC3C(=O)O)[se]c2cc1OC` (stereo not drawn) [I-22] was run?
Its value is “** (** represented an agitation fold of 10 to 20)”.

With `COc1cc2cc(C(=O)CC(C(=O)O)C(C)C)[se]c2cc1OC` (stereo not drawn) [I-17, 4-(5,6-dimethoxybenzo[b]selenophene-2-yl)-2-isopropyl-4-oxo-butanoic acid] as the compound, how does the “Agitation activity in luciferase assay, THP1-dual (agitation fold)” value read?
Its value is “*** (*** represented an agitation fold of 20 or more)”.

For `COc1cc2cc(C(=O)C[C@H](C)C(=O)O)[se]c2cc1OC` [I-4, S-4-(5,6-dimethoxybenzo[b]selenophene-2-yl)-2-methyl-4-oxo-butanoic acid], which “Agitation activity in luciferase assay, THP1-dual (agitation fold)” value is on record?
Its value is “*** (*** represented an agitation fold of 20 or more)”.

With `COc1cc2[se]c(C(=O)CC(C)C(=O)O)cc2cc1OC(C)C` (stereo not drawn) [I-10, 4-(5-isopropoxy-6-dimethoxybenzo[b]selenophene-2-yl)-2-methyl-4-oxo-butanoic acid] as the compound, how does the “Agitation activity in luciferase assay, THP1-dual (agitation fold)” value read?
Its value is “** (** represented an agitation fold of 10 to 20)”.

Which “Agitation activity in luciferase assay, THP1-dual (agitation fold)” value does the source give for `COc1cc2cc(C(=O)CC(C)C(N)=O)[se]c2cc1OC` (stereo not drawn) [I-13, 4-(5,6-dimethoxybenzo[b]selenophene-2-yl)-2-methyl-4-oxo-butyramide] here?
Its value is “* (* represented an agitation fold of 1 to 10)”.

How did the “Agitation activity in luciferase assay, THP1-dual (agitation fold)” value turn out when `COc1cc2[se]c(C(=O)CC(C)C(=O)O)cc2cc1O` (stereo not drawn) [I-7, 4-(5-hydroxyl-6-dimethoxybenzo[b]selenophene-2-yl)-2-methyl-4-oxo-butanoic acid] was run?
The value was “** (** represented an agitation fold of 10 to 20)”.

`COc1ccc2cc(C(=O)CC(C)C(=O)O)[se]c2c1` (stereo not drawn) [I-6, 4-(6-dimethoxybenzo[b]selenophene-2-yl)-2-methyl-4-oxo-butanoic acid] was tested. Which “Agitation activity in luciferase assay, THP1-dual (agitation fold)” value did it give?
The value was “* (* represented an agitation fold of 1 to 10)”.

With `CC[C@H](CC(=O)c1cc2cc(OC)c(OC)cc2[se]1)C(=O)O` [I-15, R-4-(5,6-dimethoxybenzo[b]selenophene-2-yl)-2-ethyl-4-oxo-butanoic acid] as the compound, how does the “Agitation activity in luciferase assay, THP1-dual (agitation fold)” value read?
The value was “*** (*** represented an agitation fold of 20 or more)”.

Which “Agitation activity in luciferase assay, THP1-dual (agitation fold)” value does the source give for `CCCCC(CC(=O)c1cc2cc(OC)c(OC)cc2[se]1)C(=O)O` (stereo not drawn) [I-20, 2-(2-(5,6-dimethoxybenzo[b]selenophene-2-yl)-2-oxo-ethyl) hexanoic acid] here?
Its value is “** (** represented an agitation fold of 10 to 20)”.

Which “Agitation activity in luciferase assay, THP1-dual (agitation fold)” value does the source give for `COCC(CC(=O)c1cc2cc(OC)c(OC)cc2[se]1)C(=O)O` (stereo not drawn) [I-19, 4-(5,6-dimethoxybenzo[b]selenophene-2-yl)-2-(methoxymethyl)-4-oxo-butanoic acid] here?
Its value is “** (** represented an agitation fold of 10 to 20)”.

tested on: RAW-Lucia cells; test: Luciferase assay based on RAW-Lucia cells; type: cell-based; conditions: 24 h at 37° C.
Description: as §1

Which “Agitation activity in luciferase assay, RAW-Lucia (agitation fold)” value does the source give for `COc1cc2cc(C(=O)CCCC(=O)O)[se]c2cc1OC` [I-21, 5-(5,6-dimethoxybenzo[b]selenophene-2-yl)-5-oxo-pentanoic acid] here?
The value was “* (* represented an agitation fold of 1 to 10)”.

How did the “Agitation activity in luciferase assay, RAW-Lucia (agitation fold)” value turn out when `COc1cc2cc(C(=O)C3CC3C(=O)O)[se]c2cc1OC` (stereo not drawn) [I-22] was run?
The value was “** (** represented an agitation fold of 10 to 20)”.

With `COc1cc2cc(C(=O)CC(C(=O)O)C(C)C)[se]c2cc1OC` (stereo not drawn) [I-17, 4-(5,6-dimethoxybenzo[b]selenophene-2-yl)-2-isopropyl-4-oxo-butanoic acid] as the compound, how does the “Agitation activity in luciferase assay, RAW-Lucia (agitation fold)” value read?
The value was “** (** represented an agitation fold of 10 to 20)”.

How did the “Agitation activity in luciferase assay, RAW-Lucia (agitation fold)” value turn out when `COc1cc2cc(C(=O)C[C@H](C)C(=O)O)[se]c2cc1OC` [I-4, S-4-(5,6-dimethoxybenzo[b]selenophene-2-yl)-2-methyl-4-oxo-butanoic acid] was run?
Its value is “*** (*** represented an agitation fold of 20 or more)”.

`COc1cc2[se]c(C(=O)CC(C)C(=O)O)cc2cc1OC(C)C` (stereo not drawn) [I-10, 4-(5-isopropoxy-6-dimethoxybenzo[b]selenophene-2-yl)-2-methyl-4-oxo-butanoic acid] was tested. Which “Agitation activity in luciferase assay, RAW-Lucia (agitation fold)” value did it give?
Its value is “** (** represented an agitation fold of 10 to 20)”.

With `COc1cc2cc(C(=O)CC(C)C(N)=O)[se]c2cc1OC` (stereo not drawn) [I-13, 4-(5,6-dimethoxybenzo[b]selenophene-2-yl)-2-methyl-4-oxo-butyramide] as the compound, how does the “Agitation activity in luciferase assay, RAW-Lucia (agitation fold)” value read?
The value was “* (* represented an agitation fold of 1 to 10)”.

For `COc1cc2[se]c(C(=O)CC(C)C(=O)O)cc2cc1O` (stereo not drawn) [I-7, 4-(5-hydroxyl-6-dimethoxybenzo[b]selenophene-2-yl)-2-methyl-4-oxo-butanoic acid], which “Agitation activity in luciferase assay, RAW-Lucia (agitation fold)” value is on record?
Its value is “* (* represented an agitation fold of 1 to 10)”.

How did the “Agitation activity in luciferase assay, RAW-Lucia (agitation fold)” value turn out when `COc1ccc2cc(C(=O)CC(C)C(=O)O)[se]c2c1` (stereo not drawn) [I-6, 4-(6-dimethoxybenzo[b]selenophene-2-yl)-2-methyl-4-oxo-butanoic acid] was run?
The value was “* (* represented an agitation fold of 1 to 10)”.

For `CC[C@H](CC(=O)c1cc2cc(OC)c(OC)cc2[se]1)C(=O)O` [I-15, R-4-(5,6-dimethoxybenzo[b]selenophene-2-yl)-2-ethyl-4-oxo-butanoic acid], which “Agitation activity in luciferase assay, RAW-Lucia (agitation fold)” value is on record?
Its value is “*** (*** represented an agitation fold of 20 or more)”.

How did the “Agitation activity in luciferase assay, RAW-Lucia (agitation fold)” value turn out when `CCCCC(CC(=O)c1cc2cc(OC)c(OC)cc2[se]1)C(=O)O` (stereo not drawn) [I-20, 2-(2-(5,6-dimethoxybenzo[b]selenophene-2-yl)-2-oxo-ethyl) hexanoic acid] was run?
Its value is “** (** represented an agitation fold of 10 to 20)”.

For `COCC(CC(=O)c1cc2cc(OC)c(OC)cc2[se]1)C(=O)O` (stereo not drawn) [I-19, 4-(5,6-dimethoxybenzo[b]selenophene-2-yl)-2-(methoxymethyl)-4-oxo-butanoic acid], which “Agitation activity in luciferase assay, RAW-Lucia (agitation fold)” value is on record?
Its value is “** (** represented an agitation fold of 10 to 20)”.

tested on: THP1 cells; test: Interferon β induction assay based on THP1 cells (ELISA); type: cell-based; conditions: Homo sapiens, THP-1, compound 20 μM, 3.5 h, read-out: Secretion of IFNβ in THP1 cells, effect relative to 2′,3′-cGAMP at 20 μM (%)
Description: Secreted cytokine IFNβ was determined by ELISA. THP1 cells were inoculated in a 96-well plate (there was no serum contained in an RPMI 1640 medium), such that the number of cells in each well ranged from 5×10^5 to 7×10^5. A DMSO stock solution of 10 mM was prepared from a compound to be tested, diluted with a culture medium to a target concentration to be added into the 96-well plate containing cells (the final concentration of said compound was 20 μM, and the final volume of each well was 200 μL), and cultured at 37° C. in 5% CO2 for 3.5 h. The cells were collected at 4° C. and centrifuged at 1,000 rpm for 20 mins, and supernate was collected for ELISA determination. There were three repeated wells set in the assay. The result was shown in the following tablet, with 2′,3′-cGAMP as a positive control, where the test result was represented as a percentage of activity relative to 2′,3′-cGAMP at a concentration of 20 μM.

How did the Emax at 20 µM turn out when `COc1cc2cc(C(=O)CCCC(=O)O)[se]c2cc1OC` [I-21, 5-(5,6-dimethoxybenzo[b]selenophene-2-yl)-5-oxo-pentanoic acid] was run?
Its Emax at 20 µM is 12%.

Which Emax at 20 µM does the source give for `COc1cc2cc(C(=O)C3CC3C(=O)O)[se]c2cc1OC` (stereo not drawn) [I-22] here?
The Emax at 20 µM was 115%.

`COc1cc2cc(C(=O)CC(C(=O)O)C(C)C)[se]c2cc1OC` (stereo not drawn) [I-17, 4-(5,6-dimethoxybenzo[b]selenophene-2-yl)-2-isopropyl-4-oxo-butanoic acid] was tested. Which Emax at 20 µM did it give?
The Emax at 20 µM was 293%.

For `COc1cc2cc(C(=O)C[C@H](C)C(=O)O)[se]c2cc1OC` [I-4, S-4-(5,6-dimethoxybenzo[b]selenophene-2-yl)-2-methyl-4-oxo-butanoic acid], which Emax at 20 µM is on record?
The Emax at 20 µM was 201%.

`COc1cc2[se]c(C(=O)CC(C)C(=O)O)cc2cc1OC(C)C` (stereo not drawn) [I-10, 4-(5-isopropoxy-6-dimethoxybenzo[b]selenophene-2-yl)-2-methyl-4-oxo-butanoic acid] was tested. Which Emax at 20 µM did it give?
Its Emax at 20 µM is 91%.

Which Emax at 20 µM does the source give for `COc1cc2cc(C(=O)CC(C)C(N)=O)[se]c2cc1OC` (stereo not drawn) [I-13, 4-(5,6-dimethoxybenzo[b]selenophene-2-yl)-2-methyl-4-oxo-butyramide] here?
The Emax at 20 µM was 6%.

Which Emax at 20 µM does the source give for `COc1cc2[se]c(C(=O)CC(C)C(=O)O)cc2cc1O` (stereo not drawn) [I-7, 4-(5-hydroxyl-6-dimethoxybenzo[b]selenophene-2-yl)-2-methyl-4-oxo-butanoic acid] here?
The Emax at 20 µM was 75%.

For `COc1ccc2cc(C(=O)CC(C)C(=O)O)[se]c2c1` (stereo not drawn) [I-6, 4-(6-dimethoxybenzo[b]selenophene-2-yl)-2-methyl-4-oxo-butanoic acid], which Emax at 20 µM is on record?
The Emax at 20 µM was 15%.

Which Emax at 20 µM does the source give for `CC[C@H](CC(=O)c1cc2cc(OC)c(OC)cc2[se]1)C(=O)O` [I-15, R-4-(5,6-dimethoxybenzo[b]selenophene-2-yl)-2-ethyl-4-oxo-butanoic acid] here?
The Emax at 20 µM was 2%.

How did the Emax at 20 µM turn out when `CCCCC(CC(=O)c1cc2cc(OC)c(OC)cc2[se]1)C(=O)O` (stereo not drawn) [I-20, 2-(2-(5,6-dimethoxybenzo[b]selenophene-2-yl)-2-oxo-ethyl) hexanoic acid] was run?
Its Emax at 20 µM is 132%.

Which Emax at 20 µM does the source give for `COCC(CC(=O)c1cc2cc(OC)c(OC)cc2[se]1)C(=O)O` (stereo not drawn) [I-19, 4-(5,6-dimethoxybenzo[b]selenophene-2-yl)-2-(methoxymethyl)-4-oxo-butanoic acid] here?
Its Emax at 20 µM is 107%.
